Assay results taken from ChEMBL document CHEMBL1128139, “Synthesis of 2,3-dideoxy-3,4-dihydroxymethyl substituted pyrimidine nucleoside analogues” (Bioorg Med Chem Lett, 1995).
Activity calls are given as the source filed them. The rule behind the calls is not given here.

Assays:
[1] = system: HIV-1 reverse transcriptase (Human immunodeficiency virus 1); assay: Compound was tested for HIV-1 RT inhibition in in vitro assay;IA means inactive
[2] = system: Human immunodeficiency virus 1; assay: Compound was tested for anti HIV-1 and cytopathic effects in XTT assay;IA means inactive; format: functional, organism-based

Row | SMILES | inhibition [1] | Activity [2]
1 | Nc1ccn([C@@H]2C[C@H](CO)C(CO)(CO)O2)c(=O)n1 | inactive | inactive
2 | Cc1cn([C@@H]2C[C@H](CO)C(CO)(CO)O2)c(=O)[nH]c1=O | inactive | inactive
3 | Cc1cn([C@H]2C[C@H](CO)C(CO)(CO)O2)c(=O)[nH]c1=O | inactive | inactive
4 | Nc1ccn([C@H]2C[C@H](CO)C(CO)(CO)O2)c(=O)n1 | inactive | inactive
